Measured values as given in publication PMC12250965, “Design and Synthesis of Sulfonium and Selenonium Derivatives Bearing 3′,5′-O-Benzylidene Acetal Side Chain Structure as Potent α-Glucosidase Inhibitors” (Molecules, 2025).
Like-named read-outs stand apart in the source and are kept apart here.

Tests used:
[1] = system: sucrose-loaded mice; assay: Sucrose loading test (hypoglycemic effect); type: in vivo, ICR mice; settings: sucrose loading […] p.o.
Method: Research has shown a strong association between the 2 h postprandial blood glucose level and the risk of cardiovascular events, diabetic microvascular complications such as retinopathy, and the progression of macrovascular diseases. […] Considering this underlying pathological process, α-glucosidase inhibitors, which efficiently regulate postprandial glucose fluctuations, hold significant therapeutic promise for alleviating diabetes-related complications. […] Subsequently, doses were reduced to 1.0 mg/kg.
(§1) The animal experimental protocols in this study were approved by the Experimental Animal Center of Shanghai Institute of Materia Medica (Shanghai, China). Male ICR (Institute of Cancer Research) mice (29−33 g) after an overnight fast were used for acute maltose and sucrose loading tests. In the maltose loading test, maltose (2.0 mpk of body weight) and the inhibitors and voglibose were dissolved in distillation−distillation water and administered to the mice via a stomach tube. A control group was loaded with distillation−distillation water. In the sucrose loading test, sucrose (2.5 g/kg of body weight) and the inhibitor miglitol were dissolved in distillation−distillation water and administered to the mice via a stomach tube. A control group was loaded with distillation−distillation water. Blood samples for glucose measurements were obtained from the tail vein at 0, 15, 30, 60, and 120 min after maltose and sucrose loading. The blood glucose levels were measured by a portable kit, StatStrip Xpress (Nova Biomedical Co., Ltd., Waltham, MA, USA). The AUC over was calculated by the trapezoidal method.

[2] = biological target: T1, rat intestinal sucrase (Rattus norvegicus, UniProt P23739); assay: In vitro α-glucosidase inhibition assay, rat intestinal sucrase; type: biochemical; settings: rat small intestinal brush border membrane vesicles; sucrose substrate; mean ± SD (n = 3); read-out: IC50 against sucrase
T1 construct: rat small intestinal brush border membrane vesicles were first prepared; from tissue; host or cells: rat small intestine, brush border membrane vesicles
T1 sequence (P23739 whole entry): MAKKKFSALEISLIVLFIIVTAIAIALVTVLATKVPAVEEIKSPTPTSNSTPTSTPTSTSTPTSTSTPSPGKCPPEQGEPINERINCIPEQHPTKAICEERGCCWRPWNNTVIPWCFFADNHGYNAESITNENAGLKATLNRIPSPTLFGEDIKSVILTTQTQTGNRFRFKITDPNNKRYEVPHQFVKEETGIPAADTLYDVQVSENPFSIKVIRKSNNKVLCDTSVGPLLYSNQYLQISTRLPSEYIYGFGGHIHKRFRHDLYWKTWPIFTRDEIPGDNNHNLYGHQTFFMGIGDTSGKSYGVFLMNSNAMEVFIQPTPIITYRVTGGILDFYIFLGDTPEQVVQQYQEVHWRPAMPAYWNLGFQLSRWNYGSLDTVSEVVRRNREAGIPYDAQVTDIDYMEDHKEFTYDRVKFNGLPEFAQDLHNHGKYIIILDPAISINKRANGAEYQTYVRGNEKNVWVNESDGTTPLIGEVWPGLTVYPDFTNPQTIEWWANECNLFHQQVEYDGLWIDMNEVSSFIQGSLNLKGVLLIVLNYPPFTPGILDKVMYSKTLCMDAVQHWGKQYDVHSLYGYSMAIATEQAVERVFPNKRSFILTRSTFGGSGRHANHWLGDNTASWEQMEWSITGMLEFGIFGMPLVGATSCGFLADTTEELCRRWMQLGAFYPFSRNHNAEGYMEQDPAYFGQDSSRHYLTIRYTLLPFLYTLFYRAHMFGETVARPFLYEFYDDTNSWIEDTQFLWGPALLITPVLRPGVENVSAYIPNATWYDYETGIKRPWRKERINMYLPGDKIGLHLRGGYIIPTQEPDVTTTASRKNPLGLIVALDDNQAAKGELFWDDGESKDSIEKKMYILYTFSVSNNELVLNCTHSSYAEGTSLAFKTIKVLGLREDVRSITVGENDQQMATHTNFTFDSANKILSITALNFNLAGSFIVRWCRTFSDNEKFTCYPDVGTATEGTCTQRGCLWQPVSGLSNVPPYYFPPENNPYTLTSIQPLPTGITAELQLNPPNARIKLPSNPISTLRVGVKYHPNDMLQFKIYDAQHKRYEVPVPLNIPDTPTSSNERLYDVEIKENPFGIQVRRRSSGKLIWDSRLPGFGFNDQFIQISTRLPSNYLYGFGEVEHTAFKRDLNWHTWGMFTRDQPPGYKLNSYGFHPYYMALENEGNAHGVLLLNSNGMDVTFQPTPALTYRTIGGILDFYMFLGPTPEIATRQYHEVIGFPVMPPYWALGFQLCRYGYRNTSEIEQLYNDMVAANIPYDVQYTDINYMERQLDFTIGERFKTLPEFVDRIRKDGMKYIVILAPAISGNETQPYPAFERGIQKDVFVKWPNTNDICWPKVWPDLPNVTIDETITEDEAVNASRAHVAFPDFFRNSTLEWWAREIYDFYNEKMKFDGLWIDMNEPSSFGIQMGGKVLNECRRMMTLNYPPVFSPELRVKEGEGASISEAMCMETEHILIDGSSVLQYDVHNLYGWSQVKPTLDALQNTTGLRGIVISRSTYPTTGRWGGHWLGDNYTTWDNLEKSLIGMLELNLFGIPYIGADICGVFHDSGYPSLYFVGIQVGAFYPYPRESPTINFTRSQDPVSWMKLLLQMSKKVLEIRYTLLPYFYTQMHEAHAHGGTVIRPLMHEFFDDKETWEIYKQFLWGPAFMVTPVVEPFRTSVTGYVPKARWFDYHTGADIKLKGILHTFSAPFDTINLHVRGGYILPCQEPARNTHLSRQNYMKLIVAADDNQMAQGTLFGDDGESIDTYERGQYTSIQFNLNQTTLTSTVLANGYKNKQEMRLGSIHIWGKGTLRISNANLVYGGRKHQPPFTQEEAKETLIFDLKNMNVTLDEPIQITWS

[3] = system: maltose-loaded mice; assay: Maltose loading test (hypoglycemic effect); type: in vivo, ICR mice; settings: maltose loading 2.0 g/kg, 1.0 mpk, 1 mg/kg
Method: A maltose loading test on compounds 10, 20c, neoponkoranol, and positive control (voglibose) was conducted to further evaluate their in vivo hypoglycemic effects against maltase.
as §1, with “In the maltose loading test, maltose (2.0 mpk of body weight) and the inhibitors and voglibose were dissolved in distillation−distillation water and administered to the mice via a stomach tube.” left out

[4] = biological target: rat intestinal maltase; assay: In vitro α-glucosidase inhibition assay, rat intestinal maltase; type: biochemical; settings: rat small intestinal brush border membrane vesicles; maltose substrate; mean ± SD (n = 3); read-out: IC50 against maltase
[5] = biological target: rat intestinal maltase; settings: literature value ^[a]; read-out: IC50 against maltase (converted); cited from earlier work
[6] = biological target: T1, rat intestinal sucrase; settings: literature value ^[a]; read-out: IC50 against sucrase (converted); cited from earlier work

OC[C@@H]1[C@@H](O)[C@H](O)C[S@@+]1C[C@@H](O)[C@@H](O)[C@H](O)[C@@H](O)CO [neoponkoranol]
Declined Rate of Blood Glucose Levels, 15 min ([1]; 1.0 mpk): 33.5%
Declined Rate of Blood Glucose Levels, 30 min ([1]; 1.0 mpk): 36.4%
Declined Rate of Blood Glucose Levels, 60 min ([1]; 1.0 mpk): 27.1%
Declined Rate of AUC ([1]; 1.0 mpk): 27.1%
Declined Rate of Blood Glucose Levels, 15 min ([1]; 10.0 mpk): 42.8%
Declined Rate of Blood Glucose Levels, 30 min ([1]; 10.0 mpk): 49.5%
Declined Rate of Blood Glucose Levels, 60 min ([1]; 10.0 mpk): 43.5%
Declined Rate of AUC ([1]; 10.0 mpk): 39.4%
IC50 [2]: 2.8 ± 0.5 µM
Declined Rate of Blood Glucose Levels, 15 min ([3]; 15 min): 42.3%
Declined Rate of Blood Glucose Levels, 30 min ([3]; 30 min): 33.9%
Declined Rate of Blood Glucose Levels, 60 min ([3]; 60 min): 19.4%
Declined Rate of AUC ([3]; AUC): 21.5%
IC50 [4]: 7.3 ± 1.5 µM
IC50 [5]: 6.9 µM
IC50 [6]: 2.3 µM
